Experimental data from patent publication US20250215010A1, “DIAZABICYCLOOCTANE DERIVATIVES USEFUL AS MATRIX METALLOPROTEINASE INHIBITORS” (VASA THERAPEUTICS SPOLKA Z OGRANICZONA ODPOWIEDZIALNOSCIA, priority 2022, published 2025).
Like-named read-outs stand apart in the source and are kept apart here.

How the values were obtained:
Type in all cases: biochemical
[1] = molecular target: T1, MMP13 (Homo sapiens, UniProt P45452); assay: MMP-13 colorimetric inhibition assay (Enzo kit BML-AK412); conditions: thiopeptide substrate, absorbance 415 nm; read-out: MMP 13 IC50 class
T1 construct: purchased Enzo Life Sciences, Inc. BML-AK412
Summary of the method: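 Thiopeptide chromogenic substrate (Ac-PLG-[2-mercapto-4-methylpentanoyl]-LG-OC2H5); MMP-13 hydrolysis of the thioester yields a thiol that reacts with DTNB, read at 415 nm. IC50 values (nM) derived from inhibition curves of normalized data.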

[2] = molecular target: ADAM17 (TACE) (Homo sapiens, UniProt P78536); assay: TACE fluorometric inhibition assay (Enzo kit BML-AK310); conditions: quenched fluorogenic peptide, ex/em 320/420 nm; read-out: TACE IC50 class
ADAM17 (TACE), sequence (P78536 215-477 limits assumed): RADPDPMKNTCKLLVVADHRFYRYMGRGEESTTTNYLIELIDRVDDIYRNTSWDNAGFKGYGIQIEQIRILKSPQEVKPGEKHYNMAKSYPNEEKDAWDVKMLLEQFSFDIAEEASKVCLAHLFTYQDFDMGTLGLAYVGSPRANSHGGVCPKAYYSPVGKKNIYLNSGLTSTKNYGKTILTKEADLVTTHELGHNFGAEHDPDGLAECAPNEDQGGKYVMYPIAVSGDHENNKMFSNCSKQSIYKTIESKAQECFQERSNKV
Summary of the method: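 Kit-based TACE assay run per manufacturer's protocol, using quenched fluorogenic peptide Mca-PLAQAV-Dpa-RSSSR-NH2 whose cleavage raises Mca fluorescence. Signal read at ex/em 320/420 nm; IC50 (nM) derived from inhibition curves of normalized values.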

[3] = molecular target: T2, MMP1 (Homo sapiens, UniProt P03956); assay: MMP-1 colorimetric inhibition assay (Enzo kit BML-AK404); conditions: thiopeptide substrate, absorbance 415 nm; read-out: MMP 1 IC50 class
T2 sequence (P03956 100-269 limits assumed): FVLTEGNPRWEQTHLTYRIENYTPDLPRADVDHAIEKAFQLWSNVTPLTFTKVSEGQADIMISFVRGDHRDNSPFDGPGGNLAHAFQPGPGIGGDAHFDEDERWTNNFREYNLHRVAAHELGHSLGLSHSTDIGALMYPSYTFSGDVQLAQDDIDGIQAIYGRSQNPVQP
Summary of the method: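 Colorimetric kit run per manufacturer protocol. MMP-1 cleaves a thiopeptide substrate (Ac-PLG-[2-mercapto-4-methylpentanoyl]-LG-OC2H5); released thiol reacts with DTNB, monitored at 415 nm. IC50 (nM) from inhibition curves of normalized values.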

[4] = molecular target: T3, MMP2 (Homo sapiens, UniProt P08253); assay: MMP-2 colorimetric inhibition assay (Enzo kit BML-AK408); conditions: thiopeptide substrate, absorbance 415 nm; read-out: MMP 2 IC50 class
T3 sequence (P08253 110-660): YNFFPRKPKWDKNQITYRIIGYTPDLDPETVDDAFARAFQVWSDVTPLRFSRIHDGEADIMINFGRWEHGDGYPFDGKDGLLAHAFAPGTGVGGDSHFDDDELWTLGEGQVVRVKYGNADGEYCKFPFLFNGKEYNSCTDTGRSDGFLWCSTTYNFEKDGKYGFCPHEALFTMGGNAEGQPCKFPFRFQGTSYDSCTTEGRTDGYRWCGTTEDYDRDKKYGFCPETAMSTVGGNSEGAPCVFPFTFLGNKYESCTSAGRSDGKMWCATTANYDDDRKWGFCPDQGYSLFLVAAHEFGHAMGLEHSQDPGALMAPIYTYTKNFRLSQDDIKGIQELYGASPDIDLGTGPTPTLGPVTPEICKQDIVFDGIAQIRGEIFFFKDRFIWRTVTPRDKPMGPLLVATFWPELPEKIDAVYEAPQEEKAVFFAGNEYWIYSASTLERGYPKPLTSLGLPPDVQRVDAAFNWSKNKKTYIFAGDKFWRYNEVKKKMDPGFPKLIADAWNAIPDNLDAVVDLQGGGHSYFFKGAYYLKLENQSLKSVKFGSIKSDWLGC
Summary of the method: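 Cleavage of the thiopeptide Ac-PLG-[2-mercapto-4-methylpentanoyl]-LG-OC2H5 releases a sulfhydryl that reacts with DTNB, read at 415 nm per the kit protocol. IC50 values (nM) come from inhibition curves of normalized data.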

[5] = molecular target: MMP9 (Homo sapiens, UniProt P14780); assay: MMP-9 colorimetric inhibition assay (Enzo kit BML-AK410); conditions: thiopeptide substrate, absorbance 415 nm; read-out: MMP 9 IC50 class
MMP9, sequence (P14780 94-707): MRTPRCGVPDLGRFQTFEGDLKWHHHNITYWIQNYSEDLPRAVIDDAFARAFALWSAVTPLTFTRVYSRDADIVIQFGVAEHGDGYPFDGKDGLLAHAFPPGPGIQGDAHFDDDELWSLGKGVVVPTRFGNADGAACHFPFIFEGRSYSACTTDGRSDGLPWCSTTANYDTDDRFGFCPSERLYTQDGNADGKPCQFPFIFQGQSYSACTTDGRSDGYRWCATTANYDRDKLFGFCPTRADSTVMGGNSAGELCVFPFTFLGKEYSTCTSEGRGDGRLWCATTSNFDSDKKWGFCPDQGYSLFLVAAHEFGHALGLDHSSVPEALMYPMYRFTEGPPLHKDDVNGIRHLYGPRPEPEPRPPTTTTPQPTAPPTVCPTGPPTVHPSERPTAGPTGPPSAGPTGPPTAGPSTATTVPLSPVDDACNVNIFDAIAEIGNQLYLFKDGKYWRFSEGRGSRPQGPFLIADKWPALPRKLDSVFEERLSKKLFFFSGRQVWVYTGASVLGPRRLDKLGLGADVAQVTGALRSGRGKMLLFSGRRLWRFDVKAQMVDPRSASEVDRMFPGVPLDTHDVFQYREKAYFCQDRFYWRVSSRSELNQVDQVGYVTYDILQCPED
Summary of the method: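 Colorimetric thioester-substrate assay: hydrolysis of Ac-PLG-[2-mercapto-4-methylpentanoyl]-LG-OC2H5 frees a thiol that reacts with DTNB, read at 415 nm. Run per kit protocol. IC50 (nM) taken from inhibition curves of normalized values.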

[6] = molecular target: T4, ADAM10 (Homo sapiens, UniProt O14672); assay: SensoLyte 520 ADAM10 fluorometric activity assay (AnaSpec AS-72226)
T4 construct: purchased AnaSpec, Inc. AS-72226
T4 sequence (O14672 214-748): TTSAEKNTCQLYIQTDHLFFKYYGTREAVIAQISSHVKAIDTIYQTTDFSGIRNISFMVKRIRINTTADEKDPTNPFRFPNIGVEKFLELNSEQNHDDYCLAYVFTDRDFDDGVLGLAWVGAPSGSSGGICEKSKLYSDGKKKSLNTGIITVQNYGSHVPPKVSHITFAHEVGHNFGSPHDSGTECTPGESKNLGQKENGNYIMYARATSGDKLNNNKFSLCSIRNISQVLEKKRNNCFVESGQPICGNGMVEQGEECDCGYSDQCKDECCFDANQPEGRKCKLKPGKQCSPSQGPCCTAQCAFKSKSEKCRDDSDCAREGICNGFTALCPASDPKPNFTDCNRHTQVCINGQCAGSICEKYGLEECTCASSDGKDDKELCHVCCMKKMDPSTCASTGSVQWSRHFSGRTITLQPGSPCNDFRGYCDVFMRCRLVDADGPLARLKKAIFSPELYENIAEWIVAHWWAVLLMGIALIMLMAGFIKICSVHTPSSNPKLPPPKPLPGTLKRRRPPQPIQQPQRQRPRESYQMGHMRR
Summary of the method: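 ADAM10 activity was read by cleavage of a FRET peptide substrate (5-FAM/QXL 520), run per the kit protocol, with fluorescence at 495/520 nm. IC50 values (nM) came from inhibition curves of normalized data.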

Row | SMILES | IC50 [1] [nM] | IC50 [2] [nM] | IC50 [3] [nM] | IC50 [4] [nM] | IC50 [5] [nM] | IC50 ([6]; FRET peptide substrate, ex/em 495/520 nm, read-out: ADAM 10 IC50 class) [nM] | IC50 [6] [nM]
1 | COCCOC(=O)N1[C@@H]2CC[C@H]1[C@H](C(=O)NO)N(S(=O)(=O)c1ccc(Oc3ccc(OC)cc3)nc1)C2 [Example 18, 2-methoxyethyl (1S,2R,5R)-2-(hydroxycarbamoyl)-3-((6-(4-methoxy-phenoxy)pyridin-3-yl)sulfonyl)-3,8-diazabicyclo-[3.2.1]octane-8-carboxylate] | < 50 | 1000 to 10000 | 1000 to 10000 | < 50 | < 50 | 1000 to 10000 | –
2 | COCCOC(=O)N1[C@@H]2CC[C@H]1[C@H](C(=O)NO)N(S(=O)(=O)c1ccc(Oc3ccc(F)cc3)c(F)c1)C2 [Example 5, 2-methoxyethyl (1S,2R,5R)-3-((3-fluoro-4-(4-fluoro-phenoxy)phenyl)-sulfonyl)-2-(hydroxycarbamoyl)-3,8-diazabicyclo[3.2.1]-octane-8-carboxylate] | < 50 | 50 to 1000 | 50 to 1000 | < 50 | < 50 | – | 50 to 1000
